Tested on: LLC-Ep tumors
Assay: LLC-Ep subcutaneous tumor growth in C57BL/6 mice (Example 6)
Format: in vivo
Settings: after treatment for 22 days; fusion protein 25 μg/mouse i.v., 5 daily injections; indomethacin 20 μg/mL in drinking water
Method: Female C57B1/6 mice were injected subcutaneously in the mid-back with LLC-Ep cells (2×10^6 cells per injection). When the tumors reached 600-1200 mm^3, the mice were sacrificed. The skin overlying the tumor was cleaned with betadine and ethanol, the tumors excised and necrotic tissue discarded. A suspension of tumor cells in phosphate buffered saline was prepared by passing viable tumor tissue through a sieve and then through a series of sequentially smaller […] needles of 22- to 30-gauge. The cells were adjusted to a concentration of 1×10^7 cells/mL and placed on ice. C57BL/6 mice then were injected with 0.1 mL of the freshly resuspended cells (1×10^6 cells/mouse) in the proximal midline of the subcutaneous dorsa.
When the tumors reached 100-200 mm^3 in size (about 7 to 14 days), the mice were randomized into four groups, 5 mice per group. Group 1 received intravenous injections of 0.2 mL of PBS daily. Group 2 received 5 daily intravenous injections of huKS-huγ1-huIL2 (25 μg/mouse) in PBS. Group 3 received indomethacin orally in drinking water (20 μg/mL, or about 60-70 μg of indomethacin consumed daily per mouse) throughout the treatment period. Group 4 received 5 daily intravenous injections of huKS-huγ1-huIL2(25 μg/mouse), and indomethacin orally in drinking water (20 μg/mL) throughout the treatment period. Tumor volumes were measured as described in Example 3. […]

## COc1ccc2c(c1)c(CC(=O)O)c(C)n2C(=O)c1ccc(Cl)cc1 [indomethacin]
  T/C ratio: 0.60

— patent US20040180035A1, “IL-15 immunoconjugates and uses thereof” (EMD Lexigen Research Center Corp., priority 1998, published 2004)
